Experimental data from PubChem BioAssay AID489027 (Sanford-Burnham Center for Chemical Genomics, 2010).
Active and inactive are the calls of the source. The rule behind the calls is not given here.

Target: UPR counterscreen luciferase reporter, luminescence
Experiment: luciferase reporter activation, UPR counterscreen line – cell-based, luminescence, counter-screen for adaptive UPR activator project, dose response (AID 489027)

SMILES | EC50
Cc1cc(NC(=O)c2cc(-c3ccncc3)nc3c(C)cccc23)no1 | 16 µM
O=C1NC(=O)N(Cc2ccccc2)C(=O)/C1=C\c1ccco1 | inactive
Cc1ccc(S(=O)(=O)N(CC(=O)N/N=C/c2ccc(F)cc2)c2cccc3cccnc23)cc1 | 1.92 µM
CC1=Nc2ccccc2/C1=C\c1sc(Nc2ccc(C)cc2)nc1O | 17.3 µM
Cc1cccc(NC(=O)/C(C#N)=C/c2cn(CC(=O)NCc3ccco3)c3ccccc23)c1C | > 80 µM (inactive)
CCCCN1C(=O)/C(=C2/Sc3ccc(OC)cc3N2CC)SC1=S | inactive
Cc1ccc2nc(Nc3nc(C)cc(-c4ccccc4)n3)[nH]c(=O)c2c1 | > 80 µM (inactive)
CCOc1cc(/C=C2/C(=N)N3C=CSC3=NC2=O)ccc1OCCCOc1ccccc1C | 17.7 µM
N#C/C(=C\c1ccc(OCc2ccccc2)cc1)C(=O)Nc1nc2c(s1)CCN(Cc1ccccc1)C2 | 13.3 µM
COc1ccccc1Nc1nnc(SCC(=O)NC(=O)Nc2ccc3c(c2)OCCO3)s1 | > 80 µM (inactive)
COc1ccc(Cc2nnc(N/N=C/c3ccc(N(C)C)cc3)[nH]c2=O)cc1OC | > 80 µM (inactive)
CCOc1cc(/C=N/N=C(/N)c2nonc2N)cc(Br)c1OCc1ccc(Cl)cc1 | > 80 µM (inactive)
O=C(NC(=S)Nc1cc(-c2nc3ccccc3[nH]2)ccc1Cl)c1ccc2c(c1)OCO2 | 8.21 µM
Cn1cc(/C=C(\C#N)C(=O)Nc2cccc([N+](=O)[O-])c2)c2ccccc21 | > 80 µM (inactive)
CC1CCC(C(C)C)C(OC(=O)Cn2c(-c3ccc(Cl)cc3)[n+](C)c3ccccc32)C1 (stereo not drawn) | 13.4 µM
CCOC(=O)c1nnc(-c2ccc(C)cc2)nc1Oc1ccccc1Cl | inactive
O=C(Nc1cccc(-c2nc3cccnc3s2)c1)C1c2ccccc2Oc2ccccc21 | 4.35 µM
Cc1cccc(NC(=O)c2nc[nH]c2C(=O)Nc2ccccc2[N+](=O)[O-])c1 | > 80 µM (inactive)
Cc1ccc(Nc2nc(NCCO)c3ccccc3n2)cc1C | > 80 µM (inactive)
CCC(=O)Nc1ccc(NC(=O)CSc2nc3cc4c(cc3cc2C)CCC4)cc1 | > 80 µM (inactive)
CSC1=NC(C)(C)C=C(/C=C/c2ccc(Cl)cc2)N1 | 9.17 µM
COc1ccc(CCn2c(=S)[nH]c3cc(C(=O)NCc4ccco4)ccc3c2=O)cc1OC | > 80 µM (inactive)
CCOC(=O)c1nn(-c2ccc(OCC)cc2)c2nc(-c3ccco3)c(C#N)c(=O)n12 | inactive
Cc1ccc(NC(=O)c2nc[nH]c2C(=O)NCCCNC(=O)c2[nH]cnc2C(=O)Nc2ccc(C)cc2)cc1 | > 80 µM (inactive)

SMILES | EC50
NC(=S)N/N=C/c1ccc(C23CC4CC(CC(C4)C2)C3)cc1 | 13.8 µM
CC(C)=CCCC1(C)C=Cc2c(ccc3c2[nH]c2cc(O)c(C)cc23)O1 (stereo not drawn) | 19.6 µM
CCOC(=O)c1c(NC(=O)CNC2CCCc3ccccc32)sc(C(N)=O)c1C (stereo not drawn) | > 80 µM (inactive)
O=C(Nc1ccc([N+](=O)[O-])cc1)C(Cc1ccccc1)N1C(=O)c2cccc3cccc(c23)C1=O (stereo not drawn) | inactive
COc1ccc2cc1Oc1ccc(cc1)C[C@H]1c3c(cc(OC)c4c3Oc3c(ccc5c3[C@H](C2)N(C)CC5)O4)CCN1C | 7.91 µM
CN(C)CC/C=C1\c2ccc(F)cc2Sc2cc(F)c(Cl)cc21 | > 80 µM (inactive)
Cc1[nH]c2ccccc2c1/C=C/c1nc2ccccc2c(=O)n1-c1ccc([N+](=O)[O-])cc1 | > 80 µM (inactive)
CN(c1ccccc1)S(=O)(=O)c1cccc(C(=O)NCCc2ccc(O)c(O)c2)c1 | 6.18 µM
COc1ccc(N2CCN(Cc3cc(=O)oc4cc(-c5ccccc5)c(O)cc34)CC2)cc1 | > 80 µM (inactive)
OC(CNCC1CCCO1)Cn1c2ccc(Cl)cc2c2cc(Cl)ccc21 (stereo not drawn) | > 80 µM (inactive)
Cc1cccc(NC(=O)CSc2nc(C)c(CC(=O)c3ccc(Br)cc3)c(C)c2C#N)c1C | > 80 µM (inactive)
CCOC(=O)/C(=C\c1ccccc1)C(=O)c1cc(C(C)=O)c(Nc2ccccc2)s1 | 3.71 µM
Cc1cc(NC(=O)c2cncc(Br)c2)ccc1NC(=O)c1cc2ccccc2o1 | > 80 µM (inactive)
O=C(CSc1nc2ccccc2c(=O)n1-c1ccccc1)N1CCc2ccccc21 | inactive
COc1ccc(-c2coc3cc4oc(=O)cc(-c5ccccc5)c4cc23)cc1F | inactive
CCOC(=O)c1c(NC(=O)Cc2cccs2)sc(C(=O)NC2CCCCC2)c1C | > 80 µM (inactive)
CCOC(=O)c1c(NC(=O)CSc2nnc3c(n2)[nH]c2ccc(F)cc23)sc(C(C)=O)c1C | 17.4 µM
CC1CCc2cc(F)ccc2N1C(=O)CSc1nnc2c(n1)[nH]c1ccc(F)cc12 (stereo not drawn) | > 80 µM (inactive)
COc1cc2nc(N3CCN(c4cc(C)ccc4C)CC3)nc(N)c2cc1OC | 9.19 µM
CCOC(=O)c1nnc(-c2ccc(C)cc2)nc1Sc1ccccc1Cl | 14.8 µM
COc1ccc(/C=c2\s/c(=C(/C#N)C(=O)NCc3ccco3)n(-c3ccccc3)c2=O)cc1 | inactive
COc1ccc2c(c1)NC(c1cc(Cl)cc(Cl)c1O)c1cccn1-2 (stereo not drawn) | inactive
Cc1cc(NC(=O)CSc2ccc(-c3nc4cc(C)c(C)cc4[nH]3)cn2)no1 | inactive
Cc1ccc(Cc2cnc(NC(=O)/C(C#N)=C/c3ccc(-c4ccc([N+](=O)[O-])cc4)o3)s2)cc1 | 11.3 µM

SMILES | EC50
C=CCOc1ccc(/C=N/N2C(=O)C(CC(=O)Nc3ccc(F)cc3F)SC2=NC)cc1 (stereo not drawn) | > 80 µM (inactive)
Brc1cc2c(cc1/C=N/Nc1nc3ccccc3s1)OCO2 | > 80 µM (inactive)
O=C(Nc1ccc(C(F)(F)F)cc1)c1cc(-c2cccnc2)nc2ccc(Br)cc12 | 11.5 µM
O=C(/C=C/c1ccccc1)NC(NC(=S)Nc1cccc(Cl)c1)C(Cl)(Cl)Cl (stereo not drawn) | > 80 µM (inactive)
O=C(N/N=C/C(Br)=C\c1ccccc1)c1n[nH]c2c1CCC2 | inactive
O=c1cc2oc3cc(O)c(O)cc3c(-c3ccccc3[N+](=O)[O-])c-2cc1O | > 80 µM (inactive)
CC(C)CC(NC(=O)c1ccc(Cl)cc1)C(=O)OCC(=O)c1ccc2c(c1)NC(=O)CO2 (stereo not drawn) | > 80 µM (inactive)
Cc1nn(Cc2c(Cl)cccc2Cl)c(C)c1NC(=O)c1sc2ccccc2c1Cl | 18.5 µM
O=C(/C=C/c1ccc(Cl)cc1)NC(=S)Nc1ccc(N2CCOCC2)c(Cl)c1 | > 80 µM (inactive)
Nc1c(C(=O)Nc2ccc(S(=O)(=O)N3CCCC3)cc2)sc2nc3ccc(OC(F)(F)F)cc3cc12 | 4.39 µM
Cc1ccc(-c2nnc(-c3ccc(NC(=O)c4cccs4)cc3)o2)cc1 | 12.1 µM
CCCCNc1c(-c2ccc(SC(C)CC)cc2)nc2cnccn12 (stereo not drawn) | 14.1 µM
CN(C)CCCn1cnc2c(c1=N)C(c1ccccc1)c1ccc3ccccc3c1O2 (stereo not drawn) | 7.75 µM
Oc1ccc(/C=N/Nc2nc(N3CCCC3)nc(N3CCCC3)n2)cc1O | 3.95 µM
Cc1ccc(Cc2cnc(NC(=O)/C(C#N)=C/c3ccc(-c4cccc([N+](=O)[O-])c4)o3)s2)cc1 | 12 µM
Cc1ccc2c(c1)C(=O)C(=O)N2Cc1ccc(Cl)cc1 | inactive
Cc1ccc(-c2nn(CC(=O)NCc3cc(-c4nn(C)c(=O)c5ccccc45)ccc3C)c(=O)c3ccccc23)cc1 | 13.1 µM
COc1ccc2nc(C)cc(SCC(=O)N/N=C/c3cccc4ccccc34)c2c1 | inactive
CC1(C)CC[C@@]23CC[C@]4(C)[C@@](OC2=O)(C3C1)[C@H]1O[C@H]1C1[C@@]2(C)CC[C@H](O)C(C)(C)C2CC[C@]14C (stereo partly drawn) | inactive
COC(=O)c1sccc1NC(=O)c1cc(-c2cccc(C)c2)nc2ccccc12 | > 80 µM (inactive)
Cc1sc(NC(=O)c2cc(-c3ccc(Cl)cc3)nc3ccccc23)c(C(N)=O)c1C | > 80 µM (inactive)
Cc1ccc(-c2nnn(CC(=O)Nc3ccc(S(=O)(=O)N4CCC(C)CC4)cc3)n2)cc1 | inactive
CCc1ccc(N2C(=O)NC(=O)/C(=C\c3cccn3CCOc3ccc(C(C)C)cc3)C2=O)cc1 | 6.38 µM
CC(C)c1ccc(C2C3=C(COC3=O)Nc3cc4c(cc32)OCO4)cc1 (stereo not drawn) | inactive

SMILES | EC50
Cc1cnc(NC(=O)c2cc(S(=O)(=O)N(C)C)ccc2N2CCCC2)s1 | 4.67 µM
NS(=O)(=O)c1ccc(N/N=C/c2cn(-c3ccccc3)nc2-c2cccs2)c([N+](=O)[O-])c1 | > 80 µM (inactive)
COc1cc(/C=N/NC(N)=O)c(Br)cc1OCC(=O)Nc1ccccc1C | inactive
COc1ccc2nc(NC(=O)c3cccc(-c4cc5ccccc5oc4=O)c3)sc2c1 | > 80 µM (inactive)
CCOC(=O)c1c(NC(C)=O)sc2c(OCC(O)CNC(C)(C)C)c(Br)ccc12 (stereo not drawn) | > 80 µM (inactive)
COc1ccc(C(=O)/C=C/c2ccc(O)cc2)c(O)c1C/C=C(\C)CCC=C(C)C | 15.2 µM
COc1cc(/C=N/Nc2nc(Nc3ccccc3)nc(-n3nc(C)cc3C)n2)cc(OC)c1OC | > 80 µM (inactive)
CCOc1ccccc1N=Cc1c(O)c2ccccc2oc1=O | 8.11 µM
Oc1cc(-c2ccc(N3CCCCC3)nc2)cc2cccnc12 | > 80 µM (inactive)
Cc1ccccc1NC(=O)c1ccc(N/N=C/c2ccccc2O)c([N+](=O)[O-])c1 | 7.98 µM
O=C(NC1CCCCC1)c1cccc2c1C(=O)c1ccc(-c3ccc(OC(F)(F)F)cc3)cc1S2(=O)=O | > 80 µM (inactive)
CC1=CC(C)(C)N2C(=O)C(=O)c3cc(OC(=O)c4ccco4)cc1c32 | inactive
N#C/C(=C\Nc1ccc2cn[nH]c2c1)c1nc(-c2ccc(Cl)cc2)cs1 | inactive
CC(C)N(C(=O)[C@H]1C[C@H](CC(=O)NCC23CC4CC(CC(C4)C2)C3)C(=O)N2CCc3c([nH]c4ccc(Cl)cc34)[C@]12C)C(C)C | inactive
COc1ccc(-c2nn(C)c(=O)c3ccccc23)cc1NC(=O)Cn1nc(C)c2ccccc2c1=O | > 80 µM (inactive)
COc1ccc(Nc2nc(N)c([N+](=O)[O-])c(NC3CCCCC3)n2)cc1 | > 80 µM (inactive)
O=c1cc(CN2CCN(c3ccc(F)cc3)CC2)c2cc3c(cc2o1)CCCC3 | 8.79 µM
CCc1ccc2[nH]c3nc(SCc4nnc(-c5ccc(C)cc5)o4)nnc3c2c1 | inactive
Cc1ccc2c(n1)sc1c(-c3ccc(Br)cc3)c(C#N)c(N)nc12 | > 80 µM (inactive)
O=CC1=C(c2ccccc2)Oc2ccccc2O1 | 10.3 µM
COc1ccc(-c2csc(C3=C(O)CN(Cc4ccc(Cl)cc4)C3=N)n2)cc1OC | > 80 µM (inactive)
